# Tests used:
# Format in all cases: cell-based
# [1] = test system: K-562; assay: SRB colorimetric cell growth inhibition assay, K-562; settings: Homo sapiens, K562, K-562; for GI50: GI=growth inhibition, read-out: GI50 K-562; for CC50: LC=cell killing (cytotoxic effect), read-out: LC50 K-562; for IC (TGI): TGI=total growth inhibition (cytostatic effect), read-out: TGI K-562
# Outline: (§1)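 Growth inhibition (GI), cytostatic total growth inhibition (TGI) and cytotoxic cell-kill (LC) parameters were calculated from SRB-stained cultures held under constant compound exposure, triplicates averaged.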
# [2] = test system: A-549; assay: SRB colorimetric cell growth inhibition assay, A-549; settings: Homo sapiens, A549, A-549; for GI50: GI=growth inhibition, read-out: GI50 A-549; for CC50: LC=cell killing (cytotoxic effect), read-out: LC50 A-549; for IC (TGI): TGI=total growth inhibition (cytostatic effect), read-out: TGI A-549
# Outline: as §1
# [3] = test system: SK-MEL-28; assay: SRB colorimetric cell growth inhibition assay, SK-MEL-28; settings: Homo sapiens, SK-MEL-28, MEL-28; for GI50: GI=growth inhibition, read-out: GI50 MEL-28; for CC50: LC=cell killing (cytotoxic effect), read-out: LC50 MEL-28; for IC (TGI): TGI=total growth inhibition (cytostatic effect), read-out: TGI MEL-28
# Outline: as §1
# [4] = test system: HT-29; assay: SRB colorimetric cell growth inhibition assay, HT-29; settings: Homo sapiens, HT-29, HT-29; for GI50: GI=growth inhibition, read-out: GI50 HT-29; for CC50: LC=cell killing (cytotoxic effect), read-out: LC50 HT-29; for IC (TGI): TGI=total growth inhibition (cytostatic effect), read-out: TGI HT-29
# Outline: as §1
# [5] = test system: LoVo; assay: SRB colorimetric cell growth inhibition assay, LoVo; settings: Homo sapiens, LoVo; for GI50: GI=growth inhibition, read-out: GI50 LOVO; for CC50: LC=cell killing (cytotoxic effect), read-out: LC50 LOVO; for IC (TGI): TGI=total growth inhibition (cytostatic effect), read-out: TGI LOVO
# Outline: as §1
# [6] = test system: LoVo-Dox; assay: SRB colorimetric cell growth inhibition assay, LoVo-Dox (MDR); settings: Homo sapiens, LOVO-DOX; for GI50: GI=growth inhibition, read-out: GI50 LOVO-DOX; for CC50: LC=cell killing (cytotoxic effect), read-out: LC50 LOVO-DOX; for IC (TGI): TGI=total growth inhibition (cytostatic effect), read-out: TGI LOVO-DOX
# Outline: as §1
# [7] = test system: DU-145; assay: SRB colorimetric cell growth inhibition assay, DU-145; settings: Homo sapiens, DU-145, DU-145; for GI50: GI=growth inhibition, read-out: GI50 DU-145; for CC50: LC=cell killing (cytotoxic effect), read-out: LC50 DU-145; for IC (TGI): TGI=total growth inhibition (cytostatic effect), read-out: TGI DU-145
# Outline: as §1
# [8] = test system: LNCaP; assay: SRB colorimetric cell growth inhibition assay, LNCaP; settings: Homo sapiens, LNCaP, LN-caP; for GI50: GI=growth inhibition, read-out: GI50 LN-caP; for CC50: LC=cell killing (cytotoxic effect), read-out: LC50 LN-caP; for IC (TGI): TGI=total growth inhibition (cytostatic effect), read-out: TGI LN-caP
# Outline: as §1
# [9] = test system: SK-BR-3; assay: SRB colorimetric cell growth inhibition assay, SK-BR-3; settings: Homo sapiens, SK-BR-3, SK-BR-3; for GI50: GI=growth inhibition, read-out: GI50 SK-BR-3; for CC50: LC=cell killing (cytotoxic effect), read-out: LC50 SK-BR-3; for IC (TGI): TGI=total growth inhibition (cytostatic effect), read-out: TGI SK-BR-3
# Outline: as §1
# [10] = test system: IGROV; assay: SRB colorimetric cell growth inhibition assay, IGROV; settings: Homo sapiens, IGROV; for GI50: GI=growth inhibition, read-out: GI50 IGROV; for CC50: LC=cell killing (cytotoxic effect), read-out: LC50 IGROV; for IC (TGI): TGI=total growth inhibition (cytostatic effect), read-out: TGI IGROV
# Outline: as §1
# [11] = test system: IGROV-ET; assay: SRB colorimetric cell growth inhibition assay, IGROV-ET (ET-743 resistant); settings: Homo sapiens, IGROV-ET; for GI50: GI=growth inhibition, read-out: GI50 IGROV-ET; for CC50: LC=cell killing (cytotoxic effect), read-out: LC50 IGROV-ET; for IC (TGI): TGI=total growth inhibition (cytostatic effect), read-out: TGI IGROV-ET
# Outline: as §1
# [12] = test system: HeLa; assay: SRB colorimetric cell growth inhibition assay, HeLa; settings: Homo sapiens, HeLa; for GI50: GI=growth inhibition, read-out: GI50 HELA; for CC50: LC=cell killing (cytotoxic effect), read-out: LC50 HELA; for IC (TGI): TGI=total growth inhibition (cytostatic effect), read-out: TGI HELA
# Outline: as §1
# [13] = test system: HeLa-APL; assay: SRB colorimetric cell growth inhibition assay, HeLa-APL (aplidine resistant); settings: Homo sapiens, HELA-APL; for GI50: GI=growth inhibition, read-out: GI50 HELA-APL; for CC50: LC=cell killing (cytotoxic effect), read-out: LC50 HELA-APL; for IC (TGI): TGI=total growth inhibition (cytostatic effect), read-out: TGI HELA-APL
# Outline: as §1
# [14] = test system: PANC-1; assay: SRB colorimetric cell growth inhibition assay, PANC-1; settings: Homo sapiens, PANC-1, PANC-1; for GI50: GI=growth inhibition, read-out: GI50 PANC-1; for CC50: LC=cell killing (cytotoxic effect), read-out: LC50 PANC-1; for IC (TGI): TGI=total growth inhibition (cytostatic effect), read-out: TGI PANC-1
# Outline: as §1
structure (smiles),measurement,setting,value
COc1cc(-c2c3c4cc(OC)c(OC(C)C)cc4oc(=O)c3n3ccc4c([N+](=O)[O-])cccc4c23)ccc1OC(C)C [Compound 54],GI50,[1],3.76 µM
same,CC50,[1],17.2 µM
same,IC (TGI),[1],14.2 µM
same,GI50,[2],2.85 µM
same,CC50,[2],17.2 µM
same,IC (TGI),[2],15.1 µM
same,GI50,[3],1.53 µM
same,CC50,[3],17.2 µM
same,IC (TGI),[3],5.7 µM
same,GI50,[4],1.52 µM
same,CC50,[4],17.2 µM
same,IC (TGI),[4],17.2 µM
same,GI50,[5],3.4 µM
same,CC50,[5],17.2 µM
same,IC (TGI),[5],8.94 µM
same,GI50,[6],12.5 µM
same,CC50,[6],17.2 µM
same,IC (TGI),[6],17.2 µM
same,GI50,[7],2.88 µM
same,CC50,[7],17.2 µM
same,IC (TGI),[7],7.16 µM
same,GI50,[8],1.71 µM
same,CC50,[8],11.1 µM
same,IC (TGI),[8],4.34 µM
same,GI50,[9],1.05 µM
same,CC50,[9],17.2 µM
same,IC (TGI),[9],4.31 µM
same,GI50,[10],0.884 µM
same,CC50,[10],13.3 µM
same,IC (TGI),[10],4.02 µM
same,GI50,[11],6.64 µM
same,CC50,[11],17.2 µM
same,IC (TGI),[11],17.2 µM
same,GI50,[12],0.616 µM
same,CC50,[12],17.2 µM
same,IC (TGI),[12],2.71 µM
same,GI50,[13],3.83 µM
same,CC50,[13],17.2 µM
same,IC (TGI),[13],17.2 µM
same,GI50,[14],0.711 µM
same,CC50,[14],17.2 µM
same,IC (TGI),[14],2.59 µM
COc1cc(-c2c3n(c4c(=O)oc5cc(N)c(OC)cc5c24)CCc2cc(OC)c(OC)cc2-3)ccc1N [Compound 57],GI50,[1],2.69 µM
same,CC50,[1],19.5 µM
same,IC (TGI),[1],19.5 µM
same,GI50,[2],1.29 µM
same,CC50,[2],19.5 µM
same,IC (TGI),[2],19.5 µM
same,GI50,[3],1.68 µM
same,CC50,[3],19.5 µM
same,IC (TGI),[3],12.6 µM
same,GI50,[4],3.49 µM
same,CC50,[4],19.5 µM
same,IC (TGI),[4],19.5 µM
same,GI50,[5],0.717 µM
same,CC50,[5],19.5 µM
same,IC (TGI),[5],5.3 µM
same,GI50,[6],0.828 µM
same,CC50,[6],19.5 µM
same,IC (TGI),[6],6.91 µM
same,GI50,[7],3.89 µM
same,CC50,[7],19.5 µM
same,IC (TGI),[7],12.2 µM
same,GI50,[8],2.16 µM
same,CC50,[8],13.9 µM
same,IC (TGI),[8],5.47 µM
same,GI50,[9],0.317 µM
same,CC50,[9],19.5 µM
same,IC (TGI),[9],5.24 µM
same,GI50,[10],0.847 µM
same,CC50,[10],19.5 µM
same,IC (TGI),[10],5.88 µM
same,GI50,[11],0.89 µM
same,CC50,[11],19.5 µM
same,IC (TGI),[11],6.43 µM
same,GI50,[12],0.685 µM
same,CC50,[12],19.5 µM
same,IC (TGI),[12],5.67 µM
same,GI50,[13],3.68 µM
same,CC50,[13],19.5 µM
same,IC (TGI),[13],11 µM
same,GI50,[14],0.611 µM
same,CC50,[14],19.5 µM
same,IC (TGI),[14],9.7 µM

# — patent US7396837B2, “Antitumoral analogs of lamellarins” (Pharma Mar, S.A.U., priority 2002, dated 2008)
